From patent US20250381200A1, “SINGLE-INJECTION METHODS AND FORMULATIONS TO CONTROL THE ONSET OF ESTRUS AND OVULATION IN BOVINE, CAPRINE, OVINE, CAMELID AND OTHER FEMALE ANIMALS” (Therio, LLC, priority 2024, published 2025)
Where two headings read alike, the source gives them in different places.

What was measured:
[1] = bovine, in vivo
[2] = bovine, in vivo; remark: listed apart in the source

- P4 concentration in the blood stream after decrease [1]: 0.2 to 0.6 ng/mL
- P4 concentration in the blood stream, achieved and maintained [1]: 2.0 to 3.0 ng/mL
- P4 concentration in the blood stream after decrease [2]: 1.0-1.5 ng per ml
- P4 concentration in the blood stream, achieved within 12 hours and maintained [2]: 2.0 to 3.0 ng/mL
SMILES: CC(=O)[C@H]1CC[C@H]2[C@@H]3CCC4=CC(=O)CC[C@]4(C)[C@H]3CC[C@]12C [P4, progesterone]
